Measured values as given in patent EP0745595A1, “3-(3-Aryloxyphenyl)-1-(substituted methyl)-s-triazine-2,4,6-oxo or thiotrione herbicidal agents” (American Cyanamid Company, priority 1995, dated 1996).

Legend:
Format in all cases: in vivo
[1] = test system: AMBROSIA ARTEMISIIFOLIA, L.; assay: Postemergence herbicidal evaluation, AMBEL (Ragweed, Common); conditions: for AMBEL, herbicide rating (0-9): rated four to five weeks after treatment, averaged
Summary of the method: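 Common ragweed (Ambrosia artemisiifolia) seedlings were raised in jiffy flats for roughly two weeks, then sprayed postemergence through a nozzle at 40 psi with the test compound dispersed in 50/50 acetone/water carrying 0.5% TWEEN®20. The plants were kept on greenhouse benches under conventional care. Four to five weeks later, injury was rated visually on a 0-9 scale, and repeat tests were averaged.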

[2] = test system: CHENOPODIUM ALBUM, L.; assay: Postemergence herbicidal evaluation, CHEAL (Lambsquarters, Common); conditions: for CHEAL, herbicide rating (0-9): rated four to five weeks after treatment, averaged
Summary of the method: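 Seedlings of common lambsquarters (Chenopodium album) were raised in jiffy flats for roughly two weeks, then sprayed postemergence through a nozzle at 40 psi with test compound dispersed in 50/50 acetone/water containing 0.5% TWEEN®20 surfactant. Plants were kept on greenhouse benches under standard care and rated visually on a 0-9 scale versus controls.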

[3] = test system: GALIUM APARINE; assay: Postemergence herbicidal evaluation, GALAP (Galium); parameters: key to GALAP rating / Herbicidal effect rating, GALAP / GALAP: 0-9 visual rating scale vs untreated control
Summary of the method: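 Galium (GALAP) seedlings were raised in jiffy flats for about two weeks, then sprayed with test compounds dispersed in 50/50 acetone/water containing 0.5% TWEEN®20, delivered through a nozzle at 40 psi. Plants were kept on greenhouse benches and visually rated 0-9 against a control four to five weeks later; repeat tests were averaged.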

[4] = test system: IPOMOEA SPP.; assay: Postemergence herbicidal evaluation, IPOSS (Morningglory spp.); conditions: for IPOSS, herbicide rating (0-9): rated four to five weeks after treatment, averaged
Summary of the method: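 Seedlings of morningglory (Ipomoea spp.) were raised in jiffy flats for roughly two weeks. They were then sprayed postemergence through a nozzle at 40 psi with test compound dispersed in 50/50 acetone/water containing 0.5% TWEEN®20 surfactant. Plants were kept on greenhouse benches under standard care and visually rated 0-9 against controls four to five weeks after treatment.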

[5] = test system: CASSIA OBTUSIFOLIA, L.; assay: Postemergence herbicidal evaluation, CASOB (Sicklepod); parameters: key to CASOB rating / Herbicidal effect rating, CASOB / CASOB: 0-9 visual rating scale vs untreated control
Summary of the method: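 Visual 0–9 scores reflect stand, vigor, malformation, size, chlorosis and overall appearance relative to control, taken 4–5 weeks after spraying two-week-old seedlings with about 0.125–0.500 kg/ha compound in acetone/water/TWEEN 20.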

[6] = test system: ORYZA SATIVA, L. TEBONNET; assay: Rice tolerance to post-transplant applications under flooded paddy conditions, ORYSAT (Rice, Tebonnet); conditions: for ORYSAT: post-transplanted rice; for ORYSAT herbicidal rating (rice tolerance) / Herbicidal effect rating, ORYSAT: post-transplant rice; for ORYSAT herbicidal rating (rice tolerance): rated three to four weeks after treatment; for Herbicidal effect rating, ORYSAT: 0.500 kg/ha, 3-4 weeks after treatment;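 for ORYSAT herbicidal rating (rice tolerance): applied to flooded soil surface three days after transplanting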
Summary of the method: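 Two ten-day-old Tebonnet rice seedlings transplanted into silt loam, flooded 1.5–3 cm; three days later the water surface treated with compounds in acetone/water at about 0.5, 0.25, 0.125 and 0.063 kg/ha. Visual 0–9 injury rating versus control after 3–4 weeks in greenhouse.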

[7] = test system: ECHINOCHLOA CRUS-GALLI, (L) BEAU; assay: Postemergence herbicidal evaluation, ECHCG (Barnyardgrass); parameters: key to ECHCG rating / Herbicidal effect rating, ECHCG / ECHCG: 0-9 visual rating scale vs untreated control
Summary of the method: (§1)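 Two-week-old seedlings sprayed with compound in 50/50 acetone/water plus 0.5% TWEEN 20 at about 0.125–0.500 kg/ha via nozzle at 40 psi. Kept in greenhouse; rated visually 4–5 weeks after treatment on a 0–9 scale versus untreated control, averaging repeat tests.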

[8] = test system: TRITICUM AESTIVUM, CV. APOLLO; assay: Postemergence herbicidal evaluation, TRZAWO (Wheat, Winter, CV. APOLLO)
Experimental: In the tests, seedling plants are grown in jiffy flats for about two weeks. The test compounds are dispersed in 50/50 acetone/water mixtures containing 0.5% TWEEN®20, a polyoxyethylene sorbitan monolaurate surfactant of Atlas Chemical Industries, […] through a spray nozzle operating at 40 psi for a predetermined time. After spraying, the plants are placed on greenhouse benches and are cared for in the usual manner, commensurate with conventional greenhouse practices. From four to five weeks after treatment, the seedling plants are examined and rated according to the rating system set forth below. Where more than one test is involved for a given compound, the data are averaged.
Plant species employed in these evaluations are reported by header abbreviation, common name and scientific name.
Results of herbicide evaluation are expressed on a rating scale (0-9). The scale is based upon a visual observation of plant stand, vigor, malformation, size, chlorosis and overall plant appearance as compared with a control.

[9] = test system: ABUTILON THEOPHRASTI, MEDIC.; assay: Postemergence herbicidal evaluation, ABUTH (Velvetleaf); conditions: for ABUTH, herbicide rating (0-9): rated four to five weeks after treatment, averaged
Summary of the method: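 Velvetleaf (Abutilon theophrasti) seedlings were raised in jiffy flats for about two weeks and then sprayed postemergence. The test compound was dispersed in a 50/50 acetone/water mixture containing 0.5% TWEEN®20 and applied through a nozzle operating at 40 psi. Plants were kept on greenhouse benches and rated 0-9 four to five weeks after treatment.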

[10] = test system: ZEA MAYS L.; assay: Postemergence herbicidal evaluation, ZEAMX (Corn, Field)
Summary of the method: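 Corn seedlings were raised in jiffy flats for roughly two weeks, then sprayed postemergence with the test material dispersed in 50/50 acetone/water containing 0.5% TWEEN®20 surfactant, using a nozzle at 40 psi. Plants were kept on greenhouse benches under standard care and visually rated on a 0-9 scale four to five weeks after treatment.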

[11] = test system: SETARIA VIRIDIS, (L) BEAU; assay: Postemergence herbicidal evaluation, SETVI (Foxtail, Green); parameters: key to SETVI rating / Herbicidal effect rating, SETVI / SETVI: 0-9 visual rating scale vs untreated control
Summary of the method: as §1

Cn1c(=O)[nH]c(=O)n(-c2cc(Oc3c(F)cc(C(F)(F)F)cc3Cl)ccc2F)c1=O [C, reference compound]
Herbicidal effect rating, AMBEL ([1]; 0.031 kg/ha): 1.0
Herbicidal effect rating, AMBEL ([1]; 0.063 kg/ha): 3.0
Herbicidal effect rating, AMBEL ([1]; 0.125 kg/ha): 4.0
Herbicidal effect rating, AMBEL ([1]; 0.250 kg/ha): 6.0
Herbicidal effect rating, CHEAL ([2]; 0.031 kg/ha): 3.0
Herbicidal effect rating, CHEAL ([2]; 0.063 kg/ha): 4.0
Herbicidal effect rating, CHEAL ([2]; 0.125 kg/ha): 7.0
Herbicidal effect rating, CHEAL ([2]; 0.250 kg/ha): 7.0
Herbicidal effect rating, GALAP ([3]; 0.031 kg/ha): 2.0
Herbicidal effect rating, GALAP ([3]; 0.063 kg/ha): 6.0
Herbicidal effect rating, GALAP ([3]; 0.125 kg/ha): 7.0
Herbicidal effect rating, GALAP ([3]; 0.250 kg/ha): 7.0
Herbicidal effect rating, IPOSS ([4]; 0.031 kg/ha): 4.0
Herbicidal effect rating, IPOSS ([4]; 0.063 kg/ha): 5.0
Herbicidal effect rating, IPOSS ([4]; 0.125 kg/ha): 6.0
Herbicidal effect rating, IPOSS ([4]; 0.250 kg/ha): 9.0
Herbicidal effect rating, CASOB ([5]; 0.031 kg/ha): 2.0
Herbicidal effect rating, CASOB ([5]; 0.063 kg/ha): 4.0
Herbicidal effect rating, CASOB ([5]; 0.125 kg/ha): 4.0
Herbicidal effect rating, CASOB ([5]; 0.250 kg/ha): 6.0
ORYSAT ([6]; Rate 0.031 kg/ha): 1.0
ORYSAT ([6]; Rate 0.063 kg/ha): 1.0
ORYSAT ([6]; Rate 0.125 kg/ha): 3.0
ORYSAT ([6]; Rate 0.250 kg/ha): 5.0
Herbicidal effect rating, ECHCG ([7]; 0.031 kg/ha): 0.0
Herbicidal effect rating, ECHCG ([7]; 0.063 kg/ha): 0.0
Herbicidal effect rating, ECHCG ([7]; 0.125 kg/ha): 0.0
Herbicidal effect rating, ECHCG ([7]; 0.250 kg/ha): 2.0
Herbicidal effect rating, TRZAWO ([8]; 0.031 kg/ha): 3.5
Herbicidal effect rating, TRZAWO ([8]; 0.063 kg/ha): 4.0
Herbicidal effect rating, TRZAWO ([8]; 0.125 kg/ha): 4.5
Herbicidal effect rating, TRZAWO ([8]; 0.250 kg/ha): 4.5
Herbicidal effect rating, ABUTH ([9]; 0.031 kg/ha): 2.0
Herbicidal effect rating, ABUTH ([9]; 0.063 kg/ha): 4.0
Herbicidal effect rating, ABUTH ([9]; 0.125 kg/ha): 7.0
Herbicidal effect rating, ABUTH ([9]; 0.250 kg/ha): 7.0
Herbicidal effect rating, ZEAMX ([10]; 0.031 kg/ha): 3.0
Herbicidal effect rating, ZEAMX ([10]; 0.063 kg/ha): 3.5
Herbicidal effect rating, ZEAMX ([10]; 0.125 kg/ha): 4.0
Herbicidal effect rating, ZEAMX ([10]; 0.250 kg/ha): 4.5
Herbicidal effect rating, SETVI ([11]; 0.031 kg/ha): 0.0
Herbicidal effect rating, SETVI ([11]; 0.063 kg/ha): 0.0
Herbicidal effect rating, SETVI ([11]; 0.125 kg/ha): 0.0
Herbicidal effect rating, SETVI ([11]; 0.250 kg/ha): 1.0

COC(=O)Cn1c(=O)[nH]c(=O)n(-c2cc(Oc3ccc(C(F)(F)F)cc3Cl)ccc2[N+](=O)[O-])c1=O [Compound 8, Methyl 3-{5-[(2-chloro-α,α,α-trifluoro-p-tolyl)oxy]-2-nitrophenyl}tetrahydro-2,4,6-trioxo-s-triazine-1(2H)-acetate]
AMBEL, herbicide rating (0-9) ([1]; Rate 0.125 kg/ha): 9.0
AMBEL, herbicide rating (0-9) ([1]; Rate 0.250 kg/ha): 9.0
AMBEL, herbicide rating (0-9) ([1]; Rate 0.500 kg/ha): 9.0
CHEAL, herbicide rating (0-9) ([2]; Rate 0.125 kg/ha): 9.0
CHEAL, herbicide rating (0-9) ([2]; Rate 0.250 kg/ha): 9.0
CHEAL, herbicide rating (0-9) ([2]; Rate 0.500 kg/ha): 9.0
IPOSS, herbicide rating (0-9) ([4]; Rate 0.125 kg/ha): 9.0
IPOSS, herbicide rating (0-9) ([4]; Rate 0.250 kg/ha): 9.0
IPOSS, herbicide rating (0-9) ([4]; Rate 0.500 kg/ha): 9.0
ORYSAT herbicidal rating (rice tolerance) ([6]; Rate 0.063 kg/ha): 0.0
ORYSAT herbicidal rating (rice tolerance) ([6]; Rate 0.125 kg/ha): 0.0
ORYSAT herbicidal rating (rice tolerance) ([6]; Rate 0.250 kg/ha): 1.0
ORYSAT herbicidal rating (rice tolerance) ([6]; Rate 0.500 kg/ha): 2.0
ABUTH, herbicide rating (0-9) ([9]; Rate 0.125 kg/ha): 9.0
ABUTH, herbicide rating (0-9) ([9]; Rate 0.250 kg/ha): 9.0
ABUTH, herbicide rating (0-9) ([9]; Rate 0.500 kg/ha): 9.0

COC(=O)Cn1c(=O)n(C)c(=O)n(-c2cc(Oc3ccc(SC)cc3Cl)ccc2[N+](=O)[O-])c1=O [Compound 34, Methyl 3-{5-[2-chloro-4-(methylthio)-phenoxy]-2-nitrophenyl}tetrahydro-5-methyl-2,4,6-trioxo-s-triazine-1(2H)-acetate]
AMBEL rating ([1]; Rate 0.125 kg/ha): 2.0
AMBEL rating ([1]; Rate 0.250 kg/ha): 2.0
AMBEL rating ([1]; Rate 0.500 kg/ha): 2.0
Herbicidal effect rating, ORYSAT [6]: 0.0
ECHCG rating ([7]; Rate 0.125 kg/ha): 0.0
ECHCG rating ([7]; Rate 0.250 kg/ha): 0.0
ECHCG rating ([7]; Rate 0.500 kg/ha): 0.0
TRZAWO rating ([8]; Rate 0.125 kg/ha): 2.0
TRZAWO rating ([8]; Rate 0.250 kg/ha): 2.0
TRZAWO rating ([8]; Rate 0.500 kg/ha): 2.0
SETVI rating ([11]; Rate 0.125 kg/ha): 0.0
SETVI rating ([11]; Rate 0.250 kg/ha): 0.0
SETVI rating ([11]; Rate 0.500 kg/ha): 0.0

COC(=O)Cn1c(=O)n(C)c(=O)n(-c2cc(Oc3cc(Cl)cc(Cl)c3)ccc2[N+](=O)[O-])c1=O [Compound 35, Methyl 3-[5-(3,5-dichlorophenoxy)-2-nitrophenyl]tetrahydro-5-methyl-2,4,6-trioxo-s-triazine-1(2H)-acetate]
AMBEL rating ([1]; Rate 0.125 kg/ha): 0.0
AMBEL rating ([1]; Rate 0.250 kg/ha): 0.0
AMBEL rating ([1]; Rate 0.500 kg/ha): 0.0
CHEAL rating ([2]; Rate 0.125 kg/ha): 0.0
CHEAL rating ([2]; Rate 0.250 kg/ha): 0.0
CHEAL rating ([2]; Rate 0.500 kg/ha): 0.0
GALAP rating ([3]; Rate 0.125 kg/ha): 0.0
GALAP rating ([3]; Rate 0.250 kg/ha): 0.0
GALAP rating ([3]; Rate 0.500 kg/ha): 0.0
CASOB rating ([5]; Rate 0.125 kg/ha): 0.0
CASOB rating ([5]; Rate 0.250 kg/ha): 0.0
CASOB rating ([5]; Rate 0.500 kg/ha): 0.0
Herbicidal effect rating, ORYSAT [6]: 0.0
ECHCG rating ([7]; Rate 0.125 kg/ha): 0.0
ECHCG rating ([7]; Rate 0.250 kg/ha): 0.0
ECHCG rating ([7]; Rate 0.500 kg/ha): 0.0
TRZAWO rating ([8]; Rate 0.125 kg/ha): 0.0
TRZAWO rating ([8]; Rate 0.250 kg/ha): 0.0
TRZAWO rating ([8]; Rate 0.500 kg/ha): 0.0
ABUTH rating ([9]; Rate 0.125 kg/ha): 0.0
ABUTH rating ([9]; Rate 0.250 kg/ha): 0.0
ABUTH rating ([9]; Rate 0.500 kg/ha): 0.0
ZEAMX rating ([10]; Rate 0.125 kg/ha): 1.0
ZEAMX rating ([10]; Rate 0.250 kg/ha): 1.0
ZEAMX rating ([10]; Rate 0.500 kg/ha): 1.0
SETVI rating ([11]; Rate 0.125 kg/ha): 0.0
SETVI rating ([11]; Rate 0.250 kg/ha): 0.0
SETVI rating ([11]; Rate 0.500 kg/ha): 0.0
